Read-outs that look alike come from different tables or passages of the source.
Columns and labels:
OT-I TCR [1] = assay: SPR steady-state binding of soluble OT-I TCR to immobilised pMHC (H-2Kb) at 37 °C: apparent and active KD; parameters: species or system mouse
OT-I TCR [2] = conditions: 25 °C; ref Alam 95; read-out: Original KD, Alam 95 25ºC; cited from earlier work
Text: Supplement 44318_2025_644_MOESM5_ESM.zip/KDs - Original vs Revised column.xlsx, sheet "KDs - Original vs Revised colum" | column: Original KD from indicated studies in columns

[3] = test system: naive CD8+ T cells from OT-I transgenic mice; conditions: 2D affinity AcKa; ref Huang 2010; cited from earlier work
Text: This striking observation spur ...

OT-I TCR [4] = conditions: ref Alam 99, cited from earlier work
OT-I TCR [5] = conditions: file OT1 Discrimination Published Original KD; repeated per study block; ref Alam 99, Rosette; cited from earlier work
Text: Supplement 44318_2025_644_MOESM7_ESM.zip/OT1 Discrimination Published Original KD.csv, table

naive OT-I splenocytes = conditions: relative to OVA (N4) = 1; ref Huang 2010; cited from earlier work
[6] = biological target: VSV pMHC: […] on H-2K^b with human beta-2 microglobulin (mouse | human | not stated); assay: SPR
OT-I TCR [7] = biological target: OT-I TCR; parameters: method as in Stepanek et al, 2014; conditions: SPR equilibrium binding analysis, 25 °C, mean of two independent replicates; ref Stepanek et al, 2014; cited from earlier work
[8] = test system: CD8+ Jurkat cells expressing the OT-I TCR; parameters: method as in Lo 2019; conditions: relative to OVA (N4) = 1; ref Lo 2019; cited from earlier work
[9] = test system: naive or anergic mouse OT-I CD8+ T cells; parameters: method as in 2 sources, ref Lo et al, 2023 ||| ref Lo 2023; conditions: relative to OVA (N4) = 1; values with * excluded; ref Lo 2023; cited from earlier work
[10] = test system: pre-selection OT-I double-positive thymocytes; parameters: method as in Daniels 2006; conditions: relative to OVA (N4) = 1; ref Daniels 2006; cited from earlier work
OT-I TCR [11] = assay: SPR binding of OT-I TCR to inactive (denatured or unfolded) pMHC, Bmax constrained to pMHC immobilisation level; parameters: species or system mouse; conditions: unit not printed in the file (text: µM), read-out: KD for inactive pMHC, single experiment
Target sequence in this assay (as listed by the source): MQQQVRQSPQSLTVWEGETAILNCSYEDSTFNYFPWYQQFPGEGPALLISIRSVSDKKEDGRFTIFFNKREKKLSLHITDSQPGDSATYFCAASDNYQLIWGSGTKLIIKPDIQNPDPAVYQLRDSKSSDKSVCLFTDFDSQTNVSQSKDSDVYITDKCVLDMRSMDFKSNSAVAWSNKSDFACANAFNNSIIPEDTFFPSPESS
Target sequence in this assay (as listed by the source): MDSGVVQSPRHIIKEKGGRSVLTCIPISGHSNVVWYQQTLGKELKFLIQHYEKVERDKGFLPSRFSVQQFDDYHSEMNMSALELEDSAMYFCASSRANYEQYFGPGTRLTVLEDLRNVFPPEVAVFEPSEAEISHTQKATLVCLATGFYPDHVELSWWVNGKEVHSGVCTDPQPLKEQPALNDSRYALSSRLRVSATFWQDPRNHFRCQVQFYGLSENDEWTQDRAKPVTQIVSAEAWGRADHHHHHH

[12] = test system: OT-I T cells from transgenic mice; parameters: method as in Hogquist 1995; conditions: relative to OVA (N4) = 1; ref Hogquist 1995; cited from earlier work
OT-I T cells = test system: OT-I T cells; parameters: method as in Zehn 2009; conditions: relative to OVA (N4) = 1; ref Zehn 2009; cited from earlier work
[13] = replicate 1 (1st value of the list in KD_active_calculated.csv), 37 °C, unit not given in the file (Table 1: µM), read-out: KD active, single SPR experiment
[14] = replicate 2 (2nd value of the list), 37 °C, unit inferred, read-out: KD active, single SPR experiment
[15] = replicate 3 (3rd value of the list), 37 °C, unit inferred, read-out: KD active, single SPR experiment
[16] = replicate 4 (4th value of the list), 37 °C, unit inferred, read-out: KD active, single SPR experiment
[17] = replicate 5 (5th value of the list), 37 °C, unit inferred, read-out: KD active, single SPR experiment
[18] = replicate 6 (6th value of the list), 37 °C, unit inferred, read-out: KD active, single SPR experiment
[19] = 25 °C, read-out: Original KD, Alam 99 (25ºC)
[20] = 37 °C, * excluded values, because kinetics showed biphasic behaviour, read-out: Original KD, Alam 99 (37ºC)
[21] = SPR, single repeats, read-out: KDs active

| Substance | Kd (OT-I TCR [1]; [13]) [µM] | Kd (OT-I TCR [1]; [14]) [µM] | Kd (OT-I TCR [1]; [15]) [µM] | Kd (OT-I TCR [1]; [16]) [µM] | Kd (OT-I TCR [1]; [17]) [µM] | Kd (OT-I TCR [1]; [18]) [µM] | further results |
| --- | --- | --- | --- | --- | --- | --- | --- |
| VGPRYTNL [Mapk1] |  | 4240 | 1810 | 2010 |  |  |  |
| ISFKFDHL [Cappa1] | 2470 | 6920 | 9740 | 3280 | 2800 | 2530 |  |
| OT-I TCR (soluble; murine variable domains, human constant domains, artificial interchain disulphide) |  |  |  |  |  |  | Kd [6]: 1580 µM |
| RTYTYEKL [Catnb] | 2040 | 1880 | 1900 | 2040 | 1950 | 2380 | Kd (OT-I TCR [1]; [21]): 2040 µM |
| SIIQFERL [Peptide Q4R7] | 184 | 273 | 317 |  |  |  | Kd (OT-I TCR [7]): 288 µM; Potency, Lo 2019 [8]: 3.464; Potency, Lo 2023 [9]: 14.78; Potency, Daniels 2006 [10]: 81 |
| RGYNYEKL [V-OVA, its pMHC is not correctly folded] |  |  |  |  |  |  | Kd (OT-I TCR [2]): 29.8 µM; 2D Huang 37¼C (AcKa) [3]: 0.0000029; Kd (OT-I TCR [11]; replicate 1 (first line of Denatured KD.csv)): 1560 µM; Kd (OT-I TCR [11]; replicate 2 (second line of Denatured KD.csv)): 2630 µM; Kd (OT-I TCR [4]; [19]): 18.2 µM; Kd (OT-I TCR [4]; [20]): 12.7 µM; Kd (OT-I TCR [5]): 19 µM; Potency, Huang 2010 (naive OT-I splenocytes): 417000 |
| SIAAFASL [Null] | 4610 | 3520 | 2350 |  |  |  |  |
| ATLVFHNL [Stat3] | 2270 | 4730 | 3740 |  |  |  |  |

Continued, in another order:

| Kd (OT-I TCR [1]; [13]) [µM] | Kd (OT-I TCR [1]; [14]) [µM] | Kd (OT-I TCR [1]; [15]) [µM] | Kd (OT-I TCR [1]; [16]) [µM] | Kd (OT-I TCR [1]; [17]) [µM] | Kd (OT-I TCR [1]; [18]) [µM] | Substance | further results |
| --- | --- | --- | --- | --- | --- | --- | --- |
| 2710 | 3290 | 2190 |  |  |  | SIIKFEKL [Peptide K4] |  |
| 7640 | 3760 | 4270 | 5030 | 6430 | 4280 | SIIRFEKL [Peptide R4] | Kd (OT-I TCR [2]): 57.1 µM; 2D Huang 37¼C (AcKa) [3]: 0.0000017; Kd (OT-I TCR [4]; [19]): 40.1 µM; Kd (OT-I TCR [4]; [20]): 26.9 µM; Kd (OT-I TCR [1]; [21]): 4270 µM; Kd (OT-I TCR [1]; repeat 3, read-out: Revised KDs (This Study)): 4270 µM; Kd (OT-I TCR [1]; repeat 6, read-out: Revised KDs (This Study)): 4270 µM; Kd (OT-I TCR [5]): 40.1 µM; Potency, Huang 2010 (naive OT-I splenocytes): 167000 |
|  | 2800 | 12400 | 3870 | 3520 | 2180 | EIINFEKL [Peptide E1] | Potency, Hogquist 1995 [12]: 5010000; Kd (OT-I TCR [2]): 22.6 µM; 2D Huang 37¼C (AcKa) [3]: 0.0000054; Kd (OT-I TCR [4]; [19]): 20.3 µM; Kd (OT-I TCR [1]; replicate 7 (7th value of the list), 37 °C, unit inferred, read-out: KD active, single SPR experiment): 2320 µM; Kd (OT-I TCR [1]; replicate 8 (8th value of the list), 37 °C, unit inferred, read-out: KD active, single SPR experiment): 3030 µM; Kd (OT-I TCR [1]; replicate 9 (9th value of the list), 37 °C, unit inferred, read-out: KD active, single SPR experiment): 7240 µM; Kd (OT-I TCR [1]; replicate 10 (10th value of the list), 37 °C, unit inferred, read-out: KD active, single SPR experiment): 2140 µM; Kd (OT-I TCR [5]): 20.3 µM; Potency, Daniels 2006 [10]: 56524; Potency, Huang 2010 (naive OT-I splenocytes): 167000 |
| 907 | 791 | 628 | 879 |  |  | SIIVFEKL [Peptide V4] | Potency, Zehn 2009 (OT-I T cells): 680; Kd (OT-I TCR [7]): > 1000 µM; Potency, Lo 2023 [9]: 2016 |
| 3370 | 4000 | 2730 |  |  |  | SIIEFEKL [Peptide E4] | Kd (OT-I TCR [7]): > 1000 µM |

From publication PMC12811252 (The EMBO Journal, 2025)
